The text below walks through data of US20230159510A1, “NOVEL PRMT5 INHIBITORS” (AMGEN INC., priority 2020, published 2023).

One assay relates to HCT116 WT cells. The experiment in a line: HCT116 proliferation assay, WT cells (CellTiter-Glo, 6 days). The assay is classed as cell-based. As to conditions: Homo sapiens, HCT-116, 144 h, read-out: Prolif_HCT116-WT IC50. The method, boiled down: (§1)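 Cells grown in RPMI 1640 + 10% FBS, plated overnight, then exposed for 6 days to 8- or 9-point 1:3 compound dilutions (top 1 or 10 µM) with DMSO control. Viability read by CellTiter-Glo luminescence.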
A general note: Cellular ATP, detected with luciferase, serves as a proxy for viable cell number.

For the next assay, the system named is HCT116 MTAP null cells. Description: HCT116 proliferation assay, MTAP null cells (CellTiter-Glo, 6 days). The assay is classed as cell-based. As to conditions: read-out: Protif_ HCT116-MTAP null IC50. Summed up: as §1
The target of a further assay is PRMT5/MEP50 (Homo sapiens, UniProt O14744). The experiment in a line: MTase-Glo methyl transferase assay, Method A (Histone H4 peptide, 1 µM MTA, 24 h pre-incubation). Details: made in house. The assay is classed as biochemical. As to conditions: read-out: PRMT5 MTase Glo Ki (nM, Meth. A). The method, boiled down: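 PRMT5/MEP50 (10 nM) pre-incubated 24 h with compound, 5 µM SAM and 1 µM MTA, then reaction started with 1 µM Histone H4 (1-21) peptide and run 2 h at room temperature in Tris pH 8.0 buffer. SAH formed detected by MTase-Glo luminescence; IC50 and KI from dose-response curves.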

Molecules are shown by their SMILES. Like-named read-outs stand apart in the source and are kept apart here.

Sequence of PRMT5/MEP50 (O14744 whole entry): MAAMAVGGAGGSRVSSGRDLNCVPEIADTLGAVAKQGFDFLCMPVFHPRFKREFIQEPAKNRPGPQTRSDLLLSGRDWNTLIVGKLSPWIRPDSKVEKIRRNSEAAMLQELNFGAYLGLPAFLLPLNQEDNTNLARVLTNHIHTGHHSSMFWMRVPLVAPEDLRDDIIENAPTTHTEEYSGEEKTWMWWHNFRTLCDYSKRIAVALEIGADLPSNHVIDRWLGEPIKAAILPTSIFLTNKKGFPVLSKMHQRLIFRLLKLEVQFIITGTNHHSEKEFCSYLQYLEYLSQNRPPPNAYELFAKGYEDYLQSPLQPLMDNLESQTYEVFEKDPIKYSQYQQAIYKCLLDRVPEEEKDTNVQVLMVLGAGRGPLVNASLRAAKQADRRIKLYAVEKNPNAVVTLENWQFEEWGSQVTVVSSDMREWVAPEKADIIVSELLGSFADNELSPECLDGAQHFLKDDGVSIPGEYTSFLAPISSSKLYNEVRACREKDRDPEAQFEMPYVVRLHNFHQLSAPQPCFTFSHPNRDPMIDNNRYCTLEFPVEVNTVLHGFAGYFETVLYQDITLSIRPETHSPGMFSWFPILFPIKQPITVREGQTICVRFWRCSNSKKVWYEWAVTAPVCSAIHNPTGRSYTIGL
Sequence of PRMT5/MEP50 (Q9BQA1 whole entry partner): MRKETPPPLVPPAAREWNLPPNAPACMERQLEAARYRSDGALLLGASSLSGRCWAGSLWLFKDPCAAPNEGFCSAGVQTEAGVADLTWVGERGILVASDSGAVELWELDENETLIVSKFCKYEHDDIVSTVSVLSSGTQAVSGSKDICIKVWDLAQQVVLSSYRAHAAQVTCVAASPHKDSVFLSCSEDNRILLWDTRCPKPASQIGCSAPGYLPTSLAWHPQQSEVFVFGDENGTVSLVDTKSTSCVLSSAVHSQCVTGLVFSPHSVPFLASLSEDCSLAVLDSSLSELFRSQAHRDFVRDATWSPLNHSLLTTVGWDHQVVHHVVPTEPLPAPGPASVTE

Broadly, the IC50 is the concentration at which inhibition is half-maximal. For orientation: Ki means a dissociation constant, usually derived from enzyme kinetics or from competition with a known ligand. For the compound `Cc1cc2cc(C(=O)N(Cc3ccc(C(F)(F)F)cn3)[C@@H](c3ncccn3)C3CC3)cnc2nc1N` [Example 372, 7-amino-N-((R)-cyclopropyl(2-pyrimidinyl)methyl)-6-methyl-N-((5-(trifluoromethyl)-2-pyridinyl)methyl)-1,8-naphthyridine-3-carboxamide], the IC50 with HCT116 WT cells stood at 2410 nM; with HCT116 MTAP null cells (HCT116-MTAP null, 144 h), 124 nM. The Ki on PRMT5/MEP50 came to 0.33 nM.

Turning to `C[C@H](c1ncccn1)N(Cc1ccc(C(F)F)cn1)C(=O)c1ccc2nc(N)c(Cl)cc2c1` [Example 381, 2-amino-3-chloro-N-((5-(difluoromethyl)-2-pyridinyl)methyl)-N-((1R)-1-(2-pyrimidinyl)ethyl)-6-quinolinecarboxamide], the IC50 in the assay with HCT116 WT cells is 8970 nM; in the assay with HCT116 MTAP null cells (HCT116-MTAP null, 144 h), 194 nM. The inhibition constant Ki at PRMT5/MEP50 is 0.33 nM.

In the case of `Cc1cc2cc(C(=O)N(Cc3ccc(C#N)cn3)Cc3ncccc3F)ccc2nc1N` [Example 327, 2-amino-N-((5-cyano-2-pyridinyl)methyl)-N-((3-fluoro-2-pyridinyl)methyl)-3-methyl-6-quinolinecarboxamide], the IC50 stood at 8640 nM in the assay on HCT116 WT cells and 304 nM in the assay on HCT116 MTAP null cells (HCT116-MTAP null, 144 h). On PRMT5/MEP50, the inhibitory constant (Ki) turned out to be 0.35 nM.

Take `Cc1cc2cc(C(=O)N(Cc3ccc(C(F)(F)F)cn3)[C@H](C)c3ccc(Cl)cn3)ccc2nc1N` [Example 428, 2-amino-N-((1R)-1-(5-chloro-2-pyridinyl)ethyl)-3-methyl-N-((5-(trifluoromethyl)-2-pyridinyl)methyl)-6-quinolinecarboxamide]: the IC50 in the assay with HCT116 WT cells was 3680 nM; in the assay on HCT116 MTAP null cells (HCT116-MTAP null, 144 h), 188 nM. Moreover, the Ki on PRMT5/MEP50 stood at 0.08 nM.

For the compound `Cc1cc2cc(C(=O)N(Cc3cnc(C(F)(F)F)cn3)[C@H](C)c3ncccn3)ccc2nc1N` (single isomer, unassigned) [Example 449], the IC50 in the assay on HCT116 WT cells turned out to be 5900 nM; with HCT116 MTAP null cells (HCT116-MTAP null, 144 h), 168 nM. Also, at PRMT5/MEP50, the Ki is 0.27 nM.

In the case of `COc1ccc(CN(C(=O)c2ccc3nc(N)c(C)cc3c2)[C@@H]2CCC[C@H]2O)nn1` [Example 367, 2-amino-N-((1R,2R)-2-hydroxycyclopentyl)-N-((6-methoxypyridazin-3-yl)methyl)-3-methylquinoline-6-carboxamide], the half-maximal inhibitory concentration (IC50) is greater than 10000 nM in the assay with HCT116 WT cells and 282 nM in the assay with HCT116 MTAP null cells (HCT116-MTAP null, 144 h). Besides, on PRMT5/MEP50, the inhibition constant (Ki) amounted to 0.41 nM.

`Cc1cc2cc(C(=O)N(Cc3ccc(C(F)F)nn3)[C@H](C)c3ncccn3)ccc2nc1N` [Example 380, 2-amino-N-((6-(difluoromethyl)-3-pyridazinyl)methyl)-3-methyl-N-((1R)-1-(2-pyrimidinyl)ethyl)-6-quinolinecarboxamide]: the IC50 was found to be 1670 nM in the assay with HCT116 WT cells and 79 nM in the assay with HCT116 MTAP null cells (HCT116-MTAP null, 144 h). In addition, the Ki on PRMT5/MEP50 stood at 0.27 nM.

As for `Cc1cc2cc(C(=O)N(Cc3ccc4ccccc4n3)[C@H](C)c3ncccn3)ccc2nc1N` (single isomer, unassigned) [Example 446], the half-maximal inhibitory concentration (IC50) with HCT116 WT cells is 851 nM; with HCT116 MTAP null cells (HCT116-MTAP null, 144 h) it was 45 nM. Moreover, on PRMT5/MEP50, the Ki is 0.04 nM.

Turning to `Cc1cc2cc(C(=O)N(Cc3ccc(C#N)cn3)[C@H](C)c3ncccn3)ncc2nc1N` [Example 418, 2-amino-N-((5-cyano-2-pyridinyl)methyl)-3-methyl-N-((1R)-1-(2-pyrimidinyl)ethyl)-1,7-naphthyridine-6-carboxamide], the IC50 with HCT116 WT cells is greater than 10000 nM; with HCT116 MTAP null cells (HCT116-MTAP null, 144 h) it was 500 nM. For the same compound, at PRMT5/MEP50, the inhibition constant (Ki) came out at 0.27 nM.

For `Cc1cc2cc(C(=O)N(Cc3cnc(C#N)cn3)[C@H](C)c3ncccn3)ccc2nc1N` [Example 553, 2-amino-N-((5-cyano-2-pyrazinyl)methyl)-3-methyl-N-((1R)-1-(2-pyrimidinyl)ethyl)-6-quinolinecarboxamide], the IC50 in the assay on HCT116 WT cells is greater than 10000 nM; with HCT116 MTAP null cells (HCT116-MTAP null, 144 h) it was 454 nM. Also, the Ki on PRMT5/MEP50 was 0.36 nM.

Turning to `Cc1cc2cc(C(=O)N(Cc3ccc(C4CC4)cn3)CC(C)C)ccc2nc1N` [Example 546, 2-amino-N-((5-cyclopropyl-2-pyridinyl)methyl)-3-methyl-N-(2-methylpropyl)-6-quinolinecarboxamide], the 50% inhibitory concentration (IC50) stood at 4390 nM with HCT116 WT cells and 262 nM in the assay with HCT116 MTAP null cells (HCT116-MTAP null, 144 h). The inhibitory constant (Ki) at PRMT5/MEP50 was determined as 1.09 nM.

As for `Cc1nc([C@@H](C)N(Cc2ccc(C(F)F)cn2)C(=O)c2ccc3nc(N)c(C)cc3c2)no1` (single isomer, unassigned) [Example 534], the half-maximal inhibitory concentration (IC50) was 4020 nM with HCT116 WT cells and 154 nM in the assay on HCT116 MTAP null cells (HCT116-MTAP null, 144 h). In addition, the Ki at PRMT5/MEP50 was found to be 0.33 nM.

In the case of `C[C@H](c1ncccn1)N(Cc1ccc(C2=CCOCC2)nn1)C(=O)c1ccc2nc(N)c(Cl)cc2c1` [Example 334, 2-amino-3-chloro-N-((6-(3,6-dihydro-2H-pyran-4-yl)-3-pyridazinyl)methyl)-N-((1R)-1-(2-pyrimidinyl)ethyl)-6-quinolinecarboxamide], the IC50 in the assay on HCT116 WT cells was greater than 10000 nM; in the assay with HCT116 MTAP null cells (HCT116-MTAP null, 144 h), 434 nM. The Ki at PRMT5/MEP50 is 0.34 nM.

Take `Cc1cc2cc(C(=O)N(Cc3ccc(C(F)(F)F)cn3)Cc3ccnc4[nH]ccc34)cnc2nc1N` [Example 368, N-((1H-pyrrolo[2,3-b]pyridin-4-yl)methyl)-7-amino-6-methyl-N-((5-(trifluoromethyl)pyridin-2-yl)methyl)-1,8-naphthyridine-3-carboxamide]: the concentration for half-maximal inhibition (IC50) in the assay with HCT116 WT cells is 7660 nM; in the assay with HCT116 MTAP null cells it was 411 nM. On PRMT5/MEP50, the Ki is 0.14 nM.

Regarding `Nc1nc2ncc(C(=O)N(Cc3ccc(C(F)(F)F)cn3)[C@@H](c3ncccn3)C3CC3)cc2cc1Br` [Example 373, 7-amino-6-bromo-N-((R)-cyclopropyl(2-pyrimidinyl)methyl)-N-((5-(trifluoromethyl)-2-pyridinyl)methyl)-1,8-naphthyridine-3-carboxamide], the IC50 with HCT116 WT cells came out at 1370 nM; in the assay with HCT116 MTAP null cells (HCT116-MTAP null, 144 h) it was 159 nM. The Ki at PRMT5/MEP50 stood at 0.03 nM.

Turning to `Cc1cc2nc(N)c(C)cc2cc1C(=O)N(Cc1ccc(C(F)(F)F)cn1)CC(C)C` [Example 539, 2-amino-N-isobutyl-3,7-dimethyl-N-((5-(trifluoromethyl)pyridin-2-yl)methyl)quinoline-6-carboxamide], the IC50 in the assay with HCT116 WT cells was determined as 7010 nM; in the assay with HCT116 MTAP null cells (HCT116-MTAP null, 144 h) it was 328 nM. Besides, the inhibition constant (Ki) on PRMT5/MEP50 was 0.12 nM.

As to `Cc1cc2cc(C(=O)N(Cc3ccc(C(F)(F)F)cn3)Cc3ncn(C)n3)ccc2nc1N` [Example 306, 2-amino-3-methyl-N-((1-methyl-1H-1,2,4-triazol-3-yl)methyl)-N-((5-(trifluoromethyl)-2-pyridinyl)methyl)-6-quinolinecarboxamide], the concentration for half-maximal inhibition (IC50) in the assay with HCT116 WT cells is greater than 10000 nM; in the assay on HCT116 MTAP null cells (HCT116-MTAP null, 144 h) it was 401 nM. Further, the Ki on PRMT5/MEP50 came to 0.76 nM.

`Cc1cc2cc(C(=O)N(Cc3ccc(C#N)cn3)[C@@H]3CCOc4cccnc43)ccc2nc1N` (single isomer, unassigned) [Example 519]: the IC50 in the assay with HCT116 WT cells stood at 1700 nM; in the assay with HCT116 MTAP null cells (HCT116-MTAP null, 144 h), 62 nM. The Ki at PRMT5/MEP50 was 0.13 nM.

`COc1ccc(CN(C(=O)c2cc3cc(C)c(N)nc3cc2F)[C@H](C)c2ncccn2)nn1` (single isomer, unassigned) [Example 479]: the IC50 in the assay with HCT116 WT cells amounted to 1220 nM; in the assay with HCT116 MTAP null cells (HCT116-MTAP null, 144 h), 60 nM. In addition, the Ki on PRMT5/MEP50 is 0.09 nM.

As to `Cc1cc2cc(C(=O)N(Cc3ccc(C(F)(F)F)cn3)[C@H](C)c3ncccn3)c(F)cc2nc1N` [Example 429, 2-amino-7-fluoro-3-methyl-N-((1R)-1-(2-pyrimidinyl)ethyl)-N-((5-(trifluoromethyl)-2-pyridinyl)methyl)-6-quinolinecarboxamide], the half-inhibitory concentration (IC50) with HCT116 WT cells is 607 nM; in the assay on HCT116 MTAP null cells (HCT116-MTAP null, 144 h) it was 39 nM. On PRMT5/MEP50, the Ki is 0.91 nM.

Take `Cc1cc2cc(C(=O)N(Cc3ccc(C#N)cn3)[C@@H](c3ncccn3)C3CC3)ccc2nc1N` [Example 423, 2-amino-N-((5-cyano-2-pyridinyl)methyl)-N-((R)-cyclopropyl(2-pyrimidinyl)methyl)-3-methyl-6-quinolinecarboxamide]: the concentration for half-maximal inhibition (IC50) in the assay with HCT116 WT cells is 1830 nM; in the assay with HCT116 MTAP null cells (HCT116-MTAP null, 144 h), 54 nM. Also, the Ki on PRMT5/MEP50 was determined as 0.07 nM.

Turning to `Cc1cc2cc(C(=O)N(Cc3ccc(F)cn3)Cc3ccc(C(F)(F)F)cn3)ccc2nc1N` [Example 383, 2-amino-N-((5-fluoro-2-pyridinyl)methyl)-3-methyl-N-((5-(trifluoromethyl)-2-pyridinyl)methyl)-6-quinolinecarboxamide], the IC50 in the assay on HCT116 WT cells came to 5320 nM; in the assay on HCT116 MTAP null cells (HCT116-MTAP null, 144 h), 434 nM. Moreover, the inhibition constant Ki at PRMT5/MEP50 worked out at 2.06 nM.

As to `Cc1cc2cc(C(=O)N(Cc3ccc(C4=CCCOC4)cn3)[C@H](C)c3ncccn3)ccc2nc1N` [Example 558, 2-amino-N-((5-(5,6-dihydro-2H-pyran-3-yl)-2-pyridinyl)methyl)-3-methyl-N-((1R)-1-(2-pyrimidinyl)ethyl)-6-quinolinecarboxamide], the IC50 with HCT116 WT cells is 1300 nM; with HCT116 MTAP null cells (HCT116-MTAP null, 144 h) it was 38 nM. Moreover, at PRMT5/MEP50, the Ki turned out to be 0.08 nM.

`C[C@H](c1ncccn1)N(Cc1ccc(C(F)(F)F)cn1)C(=O)c1ccc2nc(N)c(I)cc2c1` (single isomer, unassigned) [Example 544]: the IC50 in the assay with HCT116 WT cells is 723 nM; in the assay with HCT116 MTAP null cells (HCT116-MTAP null, 144 h), 21 nM. In addition, on PRMT5/MEP50, the inhibition constant (Ki) came to 0.08 nM.

Take `C[C@H](c1ncccn1)N(Cc1ccc(C(F)(F)F)cn1)C(=O)c1ccc2nc(N)c(Br)cc2c1` [Example 434, 2-amino-3-bromo-N-((1R)-1-(2-pyrimidinyl)ethyl)-N-((5-(trifluoromethyl)-2-pyridinyl)methyl)-6-quinolinecarboxamide]: the concentration for half-maximal inhibition (IC50) in the assay with HCT116 WT cells worked out at 2420 nM; in the assay with HCT116 MTAP null cells (HCT116-MTAP null, 144 h) it was 49 nM. The Ki on PRMT5/MEP50 is less than 0.1 nM.
